Here are results for 16 compounds from ChEMBL document CHEMBL1130636, “PDE4 inhibitors: new xanthine analogues” (Bioorg Med Chem Lett, 1998).

Molecules are shown by their SMILES. Active and inactive are the calls of the source. No cut-off for these calls is given here.

The target of assay [1] is T1, Phosphodiesterase 4 (Homo sapiens, UniProt P27815+Q08499+Q07343+Q08493). The experiment in a line: Inhibition of PDE4. Format: protein assay.
In assay [2] the target is T1, Phosphodiesterase 4. The experiment in a line: Relative inhibition of PDE4 activity and rolipram binding to PDE4. Format: protein assay.
The target of assay [3] is T1, Phosphodiesterase 4. Description: Inhibition of rolipram binding. Format: protein assay.
Assay [4] deals with Cavia porcellus. Description: Inhibition of eosinophil recruitment in guinea pig lung asthma model at 10 mg/kg. Format: functional.
Assay [5] has as its system Cavia porcellus. The experiment in a line: Inhibition of eosinophil recruitment in guinea pig lung asthma model at 30 mg/kg oral dose. The class given is functional.
Assay [6] relates to Mustela putorius furo. Description: Emetic effect in ferrets on oral administration at 10 mg/kg (No effect). The class given is functional, organism-based. Set-up: dose 10 mg/kg.
In assay [7] the test system is Cavia porcellus. Description: Inhibition of eosinophil recruitment in guinea pig lung asthma model at 10 mg/kg oral dose. The class given is functional.
Assay [8] deals with T1, Phosphodiesterase 4. The experiment in a line: Inhibition of rolipram binding to PDE4. The class given is protein assay.

As usually defined, the IC50 is the midpoint of a concentration-inhibition curve. Lower therefore signals inhibition by little substance. For the compound `O=C(O)c1cccc(-n2c(=O)n(Cc3ccccc3)c(=O)c3[nH]cnc32)c1`, the IC50 in assay [1] turned out to be 110 µM.
Same read-out and setting: the same measure for `CSc1ccccc1-n1c(=O)n(Cc2ccccc2)c(=O)c2[nH]cnc21`: 20 µM.
As to `C[S+]([O-])c1cccc(-n2c(=O)n(Cc3ccccc3)c(=O)c3[nH]cnc32)c1` (centres undefined), the Ratio in assay [2] is 35. Moreover, the IC50 stood at 1.6 µM in assay [3] and 56 µM in assay [1].
The matching figures for `Cc1ccccc1-n1c(=O)n(Cc2ccco2)c(=O)c2[nH]cnc21`: 10.9, 1.1 µM and 11.95 µM.
For `Nc1cccc(-n2c(=O)n(Cc3ccccc3)c(=O)c3[nH]cnc32)c1`, in assay [2], the Ratio is 34. For the same compound, the IC50 came out at 0.32 µM in assay [3] and 11 µM in assay [1].
As usually defined, the inhibition in vivo is the relative decrease from the control value, in per cent. High values mean a response far below the control, low ones a response near the control. On to `COc1ccc(C2CNC(=O)C2)cc1OC1CCCC1` (centres undefined) [ROLIPRAM], for which, in assay [4], the inhibition in vivo at 10 mg/kg stood at 48%.
Take `O=c1c2[nH]cnc2n(-c2ccccc2F)c(=O)n1Cc1ccccc1`: in assay [2], the Ratio came to 10.9. Besides, the concentration for half-maximal inhibition (IC50) turned out to be 0.22 µM in assay [3] and 2.4 µM in assay [1].
As to `O=c1c2[nH]cnc2n(-c2ccccc2)c(=O)n1Cc1ccccc1`, the Ratio in assay [2] was determined as 60. Further, the IC50 was found to be 0.08 µM in assay [3] and 4.8 µM in assay [1].
Regarding `Cc1ccccc1-n1c(=O)n(Cc2cccs2)c(=O)c2[nH]cnc21`, the inhibition in vivo at 30 mg/kg in assay [5] was 70%. Further, the result in assay [6] was inactive. In assay [2], the Ratio came to 4.1. Besides, the IC50 in assay [3] is 1.02 µM; in assay [1] it was 4.2 µM. In assay [7], at 10 mg/kg the inhibition in vivo was 56%.
As for `CC(C)(C)c1ccccc1-n1c(=O)n(Cc2ccccc2)c(=O)c2[nH]cnc21`, in assay [1], the IC50 is more than 20 µM.
For the compound `COc1cccc(-n2c(=O)n(Cc3ccccc3)c(=O)c3[nH]cnc32)c1`, the Ratio in assay [2] is 353. For the same compound, the values for the IC50 in assay [3] and in assay [1] were 0.017 µM and 6.01 µM, respectively.
The matching figures for `COC(=O)c1cccc(-n2c(=O)n(Cc3ccccc3)c(=O)c3[nH]cnc32)c1`: 453, 0.009 µM and 4.08 µM.
The like results for `Cc1ccccc1-n1c(=O)n(Cc2ccccc2)c(=O)c2[nH]cnc21` were, in that order, 11.9, 0.67 µM and 7.97 µM.
Take `C[S+]([O-])c1ccccc1-n1c(=O)n(Cc2ccccc2)c(=O)c2[nH]cnc21` (centres undefined): in assay [1], the IC50 came out at 100 µM.
The same measure, in the same setting: the same measure for `O=c1c2[nH]cnc2n(-c2ccccc2C(F)(F)F)c(=O)n1Cc1ccccc1`: 20 µM.
`O=c1c2[nH]cnc2n(-c2cccc(Cl)c2)c(=O)n1Cc1ccccc1`: the IC50 worked out at 0.042 µM in assay [8] and 6.55 µM in assay [1]. Moreover, the Ratio in assay [2] came out at 156.
